Inconclusive results and toxic doses are left out. Cut-off read from the data, not from the text of the source: active = T/C of 150% or more; inactive = T/C below 125%.
System: L1210 leukemia ip in BDF1 mice, survival T/C
Assay: NCI In Vivo Anticancer Drug Screen. Data for tumor model L1210 Leukemia (intraperitoneal) in B6D2F1 (BDF1) mice
Settings: endpoint: mean survival time, higher = longer survival
In short: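 Survival endpoint. Drug-treated group vs vehicle group, expressed as T divided by C. Tumor passaged by transplantation.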

[1] = dose: 100.0 mg/kg/injection, schedule: Q01DX001 (ip), vehicle: saline
[2] = dose: 200.0 mg/kg/injection, schedule: Q01DX001 (ip), vehicle: saline
[3] = dose: 400.0 mg/kg/injection, schedule: Q01DX001 (ip), vehicle: saline
[4] = dose: 100.0 mg/kg/injection, schedule: Q04DX003 (ip), vehicle: saline
[5] = dose: 100.0 mg/kg/injection, schedule: Q04DX002 (ip), vehicle: Klucel (hydroxypropylcellulose) (HPC)
[6] = dose: 200.0 mg/kg/injection, schedule: Q04DX002 (ip), vehicle: Klucel (hydroxypropylcellulose) (HPC)
[7] = dose: 400.0 mg/kg/injection, schedule: Q04DX002 (ip), vehicle: Klucel (hydroxypropylcellulose) (HPC)
[8] = dose: 100.0 mg/kg/injection, schedule: Q01DX001 (ip), vehicle: saline with Tween-80
[9] = dose: 200.0 mg/kg/injection, schedule: Q01DX001 (ip), vehicle: saline with Tween-80
[10] = dose: 400.0 mg/kg/injection, schedule: Q01DX001 (ip), vehicle: saline with Tween-80
[11] = dose: 100.0 mg/kg/injection, schedule: Q04DX003 (ip), vehicle: saline with Tween-80
[12] = dose: 200.0 mg/kg/injection, schedule: Q04DX003 (ip), vehicle: saline with Tween-80
[13] = dose: 400.0 mg/kg/injection, schedule: Q04DX003 (ip), vehicle: saline with Tween-80
[14] = dose: 200.0 mg/kg/injection, schedule: Q04DX003 (ip), vehicle: Klucel (hydroxypropylcellulose) (HPC)
[15] = dose: 400.0 mg/kg/injection, schedule: Q04DX003 (ip), vehicle: Klucel (hydroxypropylcellulose) (HPC)
[16] = dose: 75.0 mg/kg/injection, schedule: Q01DX001 (ip), vehicle: other

Measured: T/C

CC(=O)Nc1ccc(/C=N/NC(=S)Nc2cccc3cccnc23)cc1
inactive: [1] 92 % of control | [2] 97 % of control | [3] 97 % of control

O=C1C2C(C(=O)N1c1ccc(O)cc1)C1c3ccccc3C2C2CCCCN21 (stereo not given)
inactive: dose: 12.5 mg/kg/injection, schedule: Q04DX003 (ip), vehicle: saline 102 % of control | dose: 25.0 mg/kg/injection, schedule: Q04DX003 (ip), vehicle: saline 103 % of control | dose: 50.0 mg/kg/injection, schedule: Q04DX003 (ip), vehicle: saline 102 % of control | [4] 100 % of control

N#CNc1nc(-c2ccccc2)cc(-c2ccccc2O)n1
inactive: [5] 98 % of control | [6] 95 % of control | [7] 109 % of control

CN(C)C(=O)C1C2C=CC(C3CC23)C1C(=O)N(C)C (stereo not given)
inactive: [4] 95 % of control | dose: 200.0 mg/kg/injection, schedule: Q04DX003 (ip), vehicle: saline 90 % of control | dose: 400.0 mg/kg/injection, schedule: Q04DX003 (ip), vehicle: saline 95 % of control

Cc1ccc(S(=O)N(OCc2ccccc2)S(=O)c2ccc(C)cc2)cc1 (stereo not given)
inactive: dose: 100.0 mg/kg/injection, schedule: Q04DX002 (ip), vehicle: other 100 % of control | dose: 200.0 mg/kg/injection, schedule: Q04DX002 (ip), vehicle: other 100 % of control | dose: 400.0 mg/kg/injection, schedule: Q04DX002 (ip), vehicle: other 100 % of control

c1ccc(COc2ccnc(SCc3ccccc3)n2)cc1
inactive: dose: 100.0 mg/kg/injection, schedule: Q01DX001 (ip), vehicle: Klucel (hydroxypropylcellulose) (HPC) 90 % of control | dose: 100.0 mg/kg/injection, schedule: Q01DX009 (ip), vehicle: Klucel (hydroxypropylcellulose) (HPC) 95 % of control | dose: 200.0 mg/kg/injection, schedule: Q01DX001 (ip), vehicle: Klucel (hydroxypropylcellulose) (HPC) 95 % of control | dose: 200.0 mg/kg/injection, schedule: Q01DX009 (ip), vehicle: Klucel (hydroxypropylcellulose) (HPC) 93 % of control | dose: 400.0 mg/kg/injection, schedule: Q01DX001 (ip), vehicle: Klucel (hydroxypropylcellulose) (HPC) 100 % of control

COc1ccc(C=Nc2ccccc2C(=O)O)cc1
inactive: [8] 108 % of control | [9] 105 % of control | [10] 93 % of control

CCCCCCCCCCCC[As](=O)(O)O
inactive: dose: 50.0 mg/kg/injection, schedule: Q01DX001 (ip), vehicle: carboxymethylcellulose (CMC) 96 % of control | dose: 100.0 mg/kg/injection, schedule: Q01DX001 (ip), vehicle: carboxymethylcellulose (CMC) 93 % of control

CC(C)(C)NC(=O)CCC1CC(=O)NC12CCCCC2 (stereo not given)
inactive: dose: 75.0 mg/kg/injection, schedule: Q01DX009 (ip), vehicle: Klucel (hydroxypropylcellulose) (HPC) 90 % of control | dose: 150.0 mg/kg/injection, schedule: Q01DX009 (ip), vehicle: Klucel (hydroxypropylcellulose) (HPC) 91 % of control | dose: 300.0 mg/kg/injection, schedule: Q01DX009 (ip), vehicle: Klucel (hydroxypropylcellulose) (HPC) 96 % of control

O=C(Nc1cc(Cl)c(Cl)cc1Cl)Nc1cc(Cl)ccc1Oc1ccc(Cl)cc1S(=O)(=O)O
inactive: dose: 50.0 mg/kg/injection, schedule: Q04DX003 (ip), vehicle: alcohol 97 % of control | dose: 100.0 mg/kg/injection, schedule: Q04DX003 (ip), vehicle: alcohol 103 % of control | dose: 200.0 mg/kg/injection, schedule: Q04DX003 (ip), vehicle: alcohol 103 % of control

O=C(c1ccccc1)N1CC2CC3OC3c3cccc1c32 (stereo not given)
inactive: [11] 88 % of control | [12] 92 % of control

CCS(=O)(=O)C1C2CCC(O2)C1S(=O)(=O)CC (stereo not given)
inactive: [5] 94 % of control | [6] 101 % of control | [7] 90 % of control

O=C(c1cccc([N+](=O)[O-])c1)c1ccc(O)cc1O
inactive: dose: 100.0 mg/kg/injection, schedule: Q01DX001 (ip), vehicle: other 103 % of control | dose: 100.0 mg/kg/injection, schedule: Q04DX003 (ip), vehicle: other 103 % of control | dose: 200.0 mg/kg/injection, schedule: Q01DX001 (ip), vehicle: other 95 % of control | dose: 200.0 mg/kg/injection, schedule: Q04DX003 (ip), vehicle: other 100 % of control | dose: 400.0 mg/kg/injection, schedule: Q01DX001 (ip), vehicle: other 95 % of control | dose: 400.0 mg/kg/injection, schedule: Q04DX003 (ip), vehicle: other 100 % of control

CC(C)(C)CC(C)(C)c1ccc(OCCOc2ccccc2N)cc1
inactive: [11] 94 % of control | [12] 95 % of control | [13] 97 % of control

CC1SCC(NC(=O)NCCCl)CS1 (stereo not given)
inactive: dose: 100.0 mg/kg/injection, schedule: Q04DX002 (ip), vehicle: gum acacia 103 % of control | dose: 200.0 mg/kg/injection, schedule: Q04DX002 (ip), vehicle: gum acacia 100 % of control | dose: 400.0 mg/kg/injection, schedule: Q04DX002 (ip), vehicle: gum acacia 100 % of control

CCCCCCCCCCCC(=O)NC(=S)Nc1ccc2ccccc2c1
inactive: dose: 100.0 mg/kg/injection, schedule: Q04DX003 (ip), vehicle: Klucel (hydroxypropylcellulose) (HPC) 86 % of control | [14] 86 % of control | [15] 86 % of control

CNc1ccc2cc(Br)ccc2c1
inactive: dose: 100.0 mg/kg/injection, schedule: Q01DX005 (ip), vehicle: Klucel (hydroxypropylcellulose) (HPC) 107 % of control | dose: 200.0 mg/kg/injection, schedule: Q01DX005 (ip), vehicle: Klucel (hydroxypropylcellulose) (HPC) 107 % of control | [14] 95 % of control | dose: 400.0 mg/kg/injection, schedule: Q01DX005 (ip), vehicle: Klucel (hydroxypropylcellulose) (HPC) 95 % of control | [15] 101 % of control

CCCCSc1ncnc2nc[nH]c12
inactive: [16] 103 % of control | dose: 150.0 mg/kg/injection, schedule: Q01DX001 (ip), vehicle: other 95 % of control | dose: 300.0 mg/kg/injection, schedule: Q01DX001 (ip), vehicle: other 106 % of control

CC(=O)NNC(=O)c1ccccc1
inactive: dose: 100.0 mg/kg/injection, schedule: Q01DX009 (ip), vehicle: saline with Tween-80 101 % of control | dose: 100.0 mg/kg/injection, schedule: Q01DX009 (ip), vehicle: saline 106 % of control | [11] 106 % of control | dose: 200.0 mg/kg/injection, schedule: Q01DX009 (ip), vehicle: saline with Tween-80 109 % of control | dose: 200.0 mg/kg/injection, schedule: Q01DX009 (ip), vehicle: saline 113 % of control | [12] 108 % of control | [13] 101 % of control

CC(C)C(NC(=O)C1CSC(C)(C)N1C=O)C(N)=O (stereo not given)
inactive: [11] 101 % of control | [12] 98 % of control | [13] 101 % of control

NC(=S)N/N=C/c1ccccc1S(=O)(=O)O
inactive: [1] 96 % of control | [2] 94 % of control | [3] 102 % of control

O=C1C2=C(CCCC2)C(=O)c2ccccc21
inactive: dose: 50.0 mg/kg/injection, schedule: Q01DX001 (ip), vehicle: saline 93 % of control | [1] 100 % of control | [2] 96 % of control | [3] 102 % of control

COc1ccc(N(N=O)C(C)=O)cc1
inactive: dose: 5.0 mg/kg/injection, schedule: Q01DX001 (ip), vehicle: saline 95 % of control | dose: 10.0 mg/kg/injection, schedule: Q01DX001 (ip), vehicle: saline 97 % of control | dose: 20.0 mg/kg/injection, schedule: Q01DX001 (ip), vehicle: saline 106 % of control | dose: 40.0 mg/kg/injection, schedule: Q01DX001 (ip), vehicle: saline 106 % of control

O=C(O)C(CCCCC1CCCCC1)CCC1CCCCC1 (stereo not given)
inactive: [8] 97 % of control | [9] 99 % of control | [10] 94 % of control

Source: PubChem BioAssay AID248 (DTP/NCI, 2004)
